The record followed here is US4137414A, “5-Substituted-2-phenylbenzo[b]thiophene-3-alkylamines and related compounds” (G. D. Searle & Co., priority 1977, dated 1979).

Values after ≈ are worked out from the molar mass of the structure shown. Structures can show the parent of a compound that is named as a salt. Where two headings read alike, the source gives them in different places.

Test [1] concerns the target T1, dopamine receptors (3H-Haloperidol sites) (Bos taurus, UniProt P20288). Description: biochemical.
Description: (§1) The procedure for this assay is as follows:
(§2) Calf caudate nuclei were dissected from freshly obtained brains and stored frozen at -76° C.
(§3) Test compounds were added as 20 μl aliquots from stock solutions prepared in absolute ethanol or 0.1% ascorbic acid.
(§4) Immediately following all incubations, proteins were recovered on Whatman GF/B glass fiber filters under reduced pressure. Trapped membranes were solubilized off the filters using 1 ml NCS tissue solubilizer (Amersham/Searle Corp.) at 50° C. for 1 hour. Then, pH was adjusted by adding 0.1 ml glacial acetic acid, 10 ml PCS (Amersham/Searle) added and samples analyzed for membrane-bound radioactivity using a Mark II liquid scintillation counter (Searle Analytical, Inc.).
(§5) IC50 values were determined from log-probit plots using 4-6 concentrations of each compound.
(§6) There as two indications from the assay data as to whether a compound is a probable neuroleptic. Firstly, it must be a dopamine antagonist. […] In other words, it must have a high ^3 H-DA/^3 H-HALO, IC50 ratio.
Test [2] addresses T1, dopamine receptors (3H-Haloperidol sites). The settings on record: for antagonist ratios: in words, compared with known neuroleptics.
Description: as §1, §2, §3, §4, §5, §6
Test [3] deals with dopamine receptors (3H-dopamine sites). The test is described as follows: Receptor Binding Assay: stereospecific binding of 3H-dopamine to calf caudate membranes. The settings on record: displacement of 5nM 3H-dopamine; calf caudate membrane homogenate; 37° C., 15 minutes.
Description: as §1, §2, §3, §4, §5, §6
The subject of test [4] is Escherialla coli ATCC 8739. The test is described as follows: Anti-bacterial assay against aerobic bacteria (serial dilution in nutrient broth). The test is classed as cell-based. The settings on record: no growth of organism; aerobic incubation 20-24 hr. at 37° C.; tested at 100, 10, 1, 0.1 mcgm per ml; read-out: active (minimum concentration at which a compound is active). Here is the method:
Evidence of the anti-bacterial utility of the instant compounds vis-a-vis aerobic bacteria is provided by the following standardized test. Nutrient broth (manufactured by Baltimore Biological Laboratories) is prepared by recommended by the manufacturer, sterilized, and inoculated with Escherialla coli ATCC 8739 q.s. one million cells per ml, determined spectrophotometrically. Meanwhile, compound is heated in sterile distilled water at a concentration of 1000 mcgm per ml for 20 minutes at 80° C. This compound preparation is serially diluted and mixed with sufficient inoculated medium to afford concentrations of 100, 10, 1, and 0.1 mcgm of compound per ml. The mixtures thus obtained are incubated aerobically for 20-24 hr. at 37° C. and then examined grossly for growth of the organism. Controls are provided by concurrent incubations identical with the above except that (1) reference standards (4.3, 0.43, 0.043, and 0.0043 mcgm per ml of streptomycin sulfate and 6667, 667, 67, and 7 units of potassium penicillin G) are substituted for compound and (2) neither compound nor reference standard is present. Compounds are considered active if, at the maximum concentrations tested, no growth of organism is observed and no aberrancy is apparent in respect of the controls. Potency is expressed as the minimum concentration at which a compound is active.

T1 sequence (P20288 whole entry): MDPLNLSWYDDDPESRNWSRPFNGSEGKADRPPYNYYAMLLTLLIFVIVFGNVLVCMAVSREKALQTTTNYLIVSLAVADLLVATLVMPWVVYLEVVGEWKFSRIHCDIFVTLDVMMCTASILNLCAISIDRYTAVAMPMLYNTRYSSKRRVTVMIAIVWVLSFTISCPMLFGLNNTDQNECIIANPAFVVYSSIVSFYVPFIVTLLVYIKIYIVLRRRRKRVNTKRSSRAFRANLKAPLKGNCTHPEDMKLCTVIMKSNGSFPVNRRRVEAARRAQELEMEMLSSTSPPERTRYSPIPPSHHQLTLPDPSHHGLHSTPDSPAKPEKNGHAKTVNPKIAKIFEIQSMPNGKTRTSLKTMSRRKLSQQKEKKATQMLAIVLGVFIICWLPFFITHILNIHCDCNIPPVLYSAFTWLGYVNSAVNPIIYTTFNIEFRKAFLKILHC

A word on the IC50: it is the concentration that inhibits the measured activity by half. In turn, `CN(C)CCc1c(-c2ccccc2)sc2ccccc12` [2-phenylbenzo[b]thiophene-3-N,N-dimethylethanamine hydrochloride] registered a half-inhibitory concentration (IC50) in test [1] of 0.62 µM. In test [2], the “Ratio (^3 H-DA/^3 H-HALO IC50 ratio)” value is recorded as 21; the antagonist ratios result is “comparable to clozapine and chloropromazine”. In test [3], this compound returned a half-maximal inhibitory concentration (IC50) of 12 µM.

Regarding `OCCN1CCN(Cc2c(-c3ccccc3)sc3ccc(Cl)cc23)CC1` [1-[(5-chloro-2-phenylbenzo[b]thiophen-3-yl)methyl]-4-ethanol piperazine dihydrochloride], the MIC in test [4] amounted to 100 µg/mL.

As for `CN(C)CCc1c(-c2ccccc2)sc2ccc(Cl)cc12` [5-chloro-2-phenylbenzo[b]thiophene-3-N,N-dimethylethanamine hydrochloride], half-maximal inhibition in test [1] (IC50) was put at 0.65 µM. Further, in test [2], the “Ratio (^3 H-DA/^3 H-HALO IC50 ratio)” value is on record as 31; the antagonist ratios result is “comparable to clozapine and chloropromazine”. Also, the IC50 in test [3] stood at 20 µM. Besides, the MIC in test [4] came out at 100 µg/mL.

On to `Cl.NCCc1c(-c2ccccc2)sc2ccc(Cl)cc12` [5-chloro-2-phenylbenzo[b]thiophene-3-ethanamine hydrochloride], for which the MIC in test [4] was determined as 10 µg/mL.

In the case of `Cl.Clc1ccc2sc(-c3ccccc3)c(CCN3CCCC3)c2c1` [1[2-(5-chloro-2-phenylbenzo[b]thiophen-3-yl)ethyl]pyrrolidine hydrochloride], the IC50 in test [1] was found to be 0.65 µM; in test [3], 48 µM. For the same compound, the “Ratio (^3 H-DA/^3 H-HALO IC50 ratio)” value in test [2] (IC50 3H-dopamine / IC50 3H-Haloperidol, high ratio indicates dopamine antagonist) was determined as 74. Further, the antagonist ratios entry in test [2] was “comparable to clozapine and chloropromazine”.

As to `CN1CCN(CCCc2c(-c3ccccc3)sc3ccc(Cl)cc23)CC1.Cl.Cl` [1-[3-(5-chloro-2-phenylbenzo[b]thiophen-3-yl)propyl]-4-methylpiperazine dihydrochloride], the MIC in test [4] was found to be 100 µg/mL.

In turn, `CCN(CC)CCc1c(-c2ccccc2)sc2ccc(Cl)cc12` [5-chloro-2-phenylbenzo[b]thiophene-3-N,N-diethylethanamine hydrochloride] had an IC50 in test [1] of 0.12 µM. In test [2], the “Ratio (^3 H-DA/^3 H-HALO IC50 ratio)” value was found to be 50; the antagonist ratios entry is “comparable to clozapine and chloropromazine”. The IC50 in test [3] was determined as 6 µM.

With `CN1CCN(CCc2c(-c3ccccc3)sc3ccc(Cl)cc23)CC1` [1-[3-(5-chloro-2-phenylbenzo[b]thiophen-3-yl)ethyl]-4-methylpiperazine dihydrochoride], the MIC in test [4] worked out at 10 µg/mL (≈ 27 µM).

In test [1], `CN(C)CCCc1c(-c2ccccc2)sc2ccc(Cl)cc12` [5-chloro-2-phenylbenzo[b]thiophene-3-N,N-dimethylpropanamine hydrochloride] had an IC50 of 0.35 µM. Further, in test [2], the “Ratio (^3 H-DA/^3 H-HALO IC50 ratio)” value is 137; the antagonist ratios result is “comparable to clozapine and chloropromazine”. This compound showed an IC50 in test [3] of 48 µM.
